Counter-ions that a name gives are not always drawn. Like-named read-outs stand apart in the source and are kept apart here.
What was measured:
δ-opioid receptor = target: T1, δ-opioid receptor (Rattus norvegicus, UniProt P33533); assay: Rat brain δ-opioid receptor binding assay ([3H]DPDPE); settings: for δ-Opioid Receptor Binding, Inhibition at 1 μM: single concentration 1 μM
T1 construct: from tissue; host or cells: rat (Wistar) forebrain homogenate, particulate preparation
Method: (§1) Male, Wistar rats (150–250 g, VAF, Charles River, Kingston, N.Y.) are killed by cervical dislocation, and their brains removed and placed immediately in ice cold Tris HCl buffer (50 mM, pH 7.4). The forebrains are separated from the remainder of the brain by a coronal transection, beginning dorsally at the colliculi and passing ventrally through the midbrain-pontine junction. After dissection, the forebrains are homogenized in Tris buffer in a Teflon®-glass homogenizer. The homogenate is diluted to a concentration of 1 g of forebrain tissue per 100 mL Tris buffer and centrifuged at 39,000×G for 10 min. The pellet is resuspended in the same volume of Tris buffer with several brief pulses from a Polytron homogenizer. This particulate preparation is used for the δ-opioid binding assays. Following incubation with the δ-selective peptide ligand [^3H]DPDPE at 25° C., the tube contents are filtered through Whatman GF/B filter sheets on a Brandel cell harvester. The tubes and filters are rinsed three times with 4 mL of 10 mM HEPES (pH 7.4), and the radioactivity associated with the filter circles determined using Formula 989 scintillation fluid (New England Nuclear, Boston, Mass.) in a scintillation counter.
The data are used to calculate either the % inhibition compared to control binding (when only a single concentration of test compound is evaluated) or a Ki value (when a range of concentrations are tested).
% Inhibition was calculated as: […]
(§2) Ki value is calculated using the LIGAND (Munson, P. J. and Rodbard, D., Anal. Biochem. 107: 220–239, 1980) data analysis program.

[1] = test system: acetylcholine bromide-induced abdominal constriction response; assay: Mouse acetylcholine bromide-induced abdominal constriction assay (MAIT); assay type: in vivo; settings: 150 μmole/Kg p.o., acetylcholine bromide 5.5 mg/kg i.p. 30 min later
Method: The mouse acetylcholine-induced abdominal constriction assay, as described by Collier et al. in Brit. […] The test drugs or appropriate vehicles were administered orally (p.o.) and 30 min later the animal received an intraperitoneal (i.p.) injection of 5.5 mg/kg acetylcholine bromide (Matheson, Coleman and Bell, East Rutherford, N.J.). The mice were then placed in groups of three into glass bell jars and observed for a ten min observation period for the occurrence of an abdominal constriction response (defined as a wave of constriction and elongation passing caudally along the abdominal wall, accompanied by a twisting of the trunk and followed by extension of the hind limbs). For compounds of the present invention, the percent inhibition of this response to a nociceptive stimulus (equated to °/analgesia) was calculated as follows:
[formula] • CAR: Control Animal Responses • DTAR: Drug-Treated Animal Responses

μ-opioid receptor = target: T2, μ-opioid receptor (Rattus norvegicus, UniProt P33535); assay: Rat brain μ-opioid receptor binding assay ([3H]DAMGO)
T2 construct: from tissue; host or cells: rat (Wistar) forebrain homogenate, particulate preparation
T2 sequence (P33535 whole entry): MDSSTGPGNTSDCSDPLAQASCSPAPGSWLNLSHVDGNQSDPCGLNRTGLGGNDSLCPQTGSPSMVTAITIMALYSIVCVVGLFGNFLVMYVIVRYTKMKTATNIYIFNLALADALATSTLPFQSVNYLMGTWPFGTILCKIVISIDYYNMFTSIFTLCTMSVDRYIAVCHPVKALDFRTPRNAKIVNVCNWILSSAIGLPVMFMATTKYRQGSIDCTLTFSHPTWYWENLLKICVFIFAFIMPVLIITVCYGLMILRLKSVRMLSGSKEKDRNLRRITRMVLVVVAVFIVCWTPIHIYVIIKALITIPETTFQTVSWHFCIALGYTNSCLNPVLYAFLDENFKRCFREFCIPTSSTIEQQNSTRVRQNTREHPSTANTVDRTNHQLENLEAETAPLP
Method: as §1, with “Chades” for “Charles”, “dislocation” for “dislocation,”, “μ-opioid” for “δ-opioid”, “Following incubation with the δ-selective peptide ligand [^3H]DPDPE at 25° C., the tube contents are filtered through Whatman GF/B filter sheets on a Brandel cell harvester.” left out, “7.4)” for “7.4),”
The data are used to calculate either the % inhibition compared to control binding (when only a single concentration of test compound is evaluated) or a Ki value (when a range of concentrations is tested).
% Inhibition is calculated as: […]
as §2

[2] = rat forebrain membranes, [3H]DPDPE
[3] = rat forebrain membranes, [3H]DPDPE, 25° C., read-out: δ-Opioid Receptor Binding Ki
[4] = rat forebrain membranes, [3H]DAMGO, 25° C., read-out: μ-Opioid Receptor Binding Ki

T1 sequence (P33533 whole entry): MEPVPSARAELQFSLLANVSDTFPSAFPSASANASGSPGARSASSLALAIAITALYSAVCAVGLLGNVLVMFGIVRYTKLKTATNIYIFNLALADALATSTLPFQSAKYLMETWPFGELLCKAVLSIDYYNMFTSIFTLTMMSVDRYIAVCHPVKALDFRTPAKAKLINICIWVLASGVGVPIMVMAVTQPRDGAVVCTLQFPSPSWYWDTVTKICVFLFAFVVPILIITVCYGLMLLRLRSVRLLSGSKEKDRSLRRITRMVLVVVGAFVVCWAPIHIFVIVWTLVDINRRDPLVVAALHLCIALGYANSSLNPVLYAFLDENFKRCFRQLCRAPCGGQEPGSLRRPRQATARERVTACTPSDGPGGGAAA

Molecule | Ki (δ-opioid receptor) [nM] | MAIT % Inhibition [1] [%] | Ki (μ-opioid receptor) [nM] | also measured
CCN(CC)C(=O)c1ccc(N(Cc2ccccc2)[C@@H]2CN3CCC2CC3)cc1 [Compound 21, (+)-(S)-N,N-Diethyl-4-[phenylmethyl-(1-azabicyclo[2.2.2]octan-3-amino)]benzamide Fumarate Hydrate [1:1.5:1]] | 20 | 35.720 | 2550 | 
N-Morpholino-4-[phenyl-(1-azabicyclo[2.2.2]octan-3-amino)]benzamide Fumarate [Compound 15, N-Morpholino-4-[phenyl-(1-azabicyclo[2.2.2]octan-3-amino)]benzamide Fumarate [1:1]] |  |  |  | δ-Opioid Receptor Binding, Inhibition at 1 μM (δ-opioid receptor; [2]): <50%
N,N-Diethyl-4-[phenyl-(1-azabicyclo[2.2.2]octan-3-amino)]-3-chlorobenzamide Fumarate [Compound 13, N,N-Diethyl-4-[phenyl-(1-azabicyclo[2.2.2]octan-3-amino)]-3-chlorobenzamide Fumarate [1:1]] |  |  |  | Ki (δ-opioid receptor; [3]): 880 nM
CCN(CC)C(=O)c1ccc(N(Cc2cccc(Cl)c2)C2CN3CCC2CC3)cc1 (centres unmarked) (as salt: fumarate) [Compound 17] |  |  |  | melting point: 193 to 196 °C
CCN(CC)C(=O)c1ccc(N(c2ccccc2)[C@H]2C3CCN(CC3)[C@@H]2C)cc1 [Compound 8, N,N-Diethyl-4-[phenyl-(trans-2-methyl-1-azabicyclo[2.2.2]octan-3-amino)]benzamide Fumarate Hydrate [1:1:0.5]] |  |  |  | Ki (δ-opioid receptor; [3]): 26 nM; Ki (μ-opioid receptor; [4]): 1340 nM
N-pyrrolidinyl-4-[(4-methoxyphenyl)-(1-azabicyclo[2.2.2]octan-3-amino)]benzamide Fumarate [Compound 14, N-pyrrolidinyl-4-[(4-methoxyphenyl)-(1-azabicyclo[2.2.2]octan-3-amino)]benzamide Fumarate [1:1]] |  |  |  | δ-Opioid Receptor Binding, Inhibition at 1 μM (δ-opioid receptor; [2]): <50%
CCN(CC)C(=O)c1ccc(N(Cc2ccccc2)[C@H]2CN3CCC2CC3)cc1 [Compound 20, (−)-(R)-N,N-Diethyl-4-[phenylmethyl-(1-azabicyclo[2.2.2]octan-3-amino)]benzamide Fumarate Hydrate [1:1.5:1]] | 11 | 57.1 | 1240 | 
CCN(CC)C(=O)c1ccc(N(Cc2ccccc2F)C2CN3CCC2CC3)cc1 (centres unmarked) (as salt: fumarate) (hydrate or solvate) [Compound 18] |  |  |  | melting point: 193 to 196 °C
N,N-Diethyl-4-[phenyl-(cis-2-methyl-1-azabicyclo[2.2.2]octan-3-amino)]benzamide [Compound 9] |  | 20 |  | 
CCN(CC)C(=O)c1ccc(N(Cc2cccc(F)c2)C2CN3CCC2CC3)cc1 (centres unmarked) [Compound 19] | 5.5 | 18.2 | 1120 | 
N,N-Diethyl-4-[phenyl-(1-azabicyclo[2.2.2]octan-3-amino)]benzamide Fumarate [Compound 1, N,N-Diethyl-4-[phenyl-(1-azabicyclo[2.2.2]octan-3-amino)]benzamide Fumarate [1:1]] |  | 55.6 |  | 
CCN(CC)C(=O)c1ccc(N(Cc2ccccc2)C2CN3CCC2CC3)cc1 (centres unmarked) [Compound 16, N,N-Diethyl-4-[phenylmethyl-(1-azabicyclo[2.2.2]octan-3-amino)]benzamide Fumarate Hydrate [1:1.5:1]] | 50 | 50 | 1920 | 
CCN(CC)C(=O)c1ccc(N(Cc2ccccc2F)C2CN3CCC2CC3)cc1 (centres unmarked) [Compound 18] | 39 | 28.6 | 1160 | 
N,N-Diethyl-4-[phenyl-(1-azabicyclo[2.2.2]octan-3-amino)]-3-methylbenzamide Fumarate [Compound 12, N,N-Diethyl-4-[phenyl-(1-azabicyclo[2.2.2]octan-3-amino)]-3-methylbenzamide Fumarate [1:1]] |  |  |  | Ki (δ-opioid receptor; [3]): 608 nM; Ki (μ-opioid receptor; [4]): 10000 nM
CCN(CC)C(=O)c1ccc(N(Cc2cccc(Cl)c2)C2CN3CCC2CC3)cc1 (centres unmarked) [Compound 17] | 21 | 16.7 | 914 | 
N,N-Diethyl-4-[phenyl-(1-azabicyclo[2.2.2]octan-3-amino)]-3-fluorobenzamide Fumarate [Compound 11, N,N-Diethyl-4-[phenyl-(1-azabicyclo[2.2.2]octan-3-amino)]-3-fluorobenzamide Fumarate [1:1]] |  |  |  | Ki (δ-opioid receptor; [3]): 255 nM; Ki (μ-opioid receptor; [4]): 8330 nM
N,N-Diethyl-4-[(3-trifluoromethylphenyl)-(1-azabicyclo[2.2.2]octan-3-amino)]benzamide Hydrochloride [Compound 4, N,N-Diethyl-4-[(3-trifluoromethylphenyl)-(1-azabicyclo[2.2.2]octan-3-amino)]benzamide Hydrochloride [1:1]] |  |  |  | δ-Opioid Receptor Binding, Inhibition at 1 μM (δ-opioid receptor; [2]): <50%
CCN(CC)C(=O)c1ccc(N(Cc2ccccc2)C2CN3CCC2CC3)cc1 (centres unmarked) (as salt: fumarate) (hydrate or solvate) [Compound 16, N,N-Diethyl-4-[phenylmethyl-(1-azabicyclo[2.2.2]octan-3-amino)]benzamide Fumarate Hydrate [1:1.5:1]] |  |  |  | melting point: 107 to 110 °C
N,N-Diethyl-4-[(3,5-dichlorophenyl)-(1-azabicyclo[2.2.2]octan-3-amino)]benzamide Hydrochloride [Compound 7, N,N-Diethyl-4-[(3,5-dichlorophenyl)-(1-azabicyclo[2.2.2]octan-3-amino)]benzamide Hydrochloride [1:1]] |  |  |  | δ-Opioid Receptor Binding, Inhibition at 1 μM (δ-opioid receptor; [2]): <50%
N,N-Diethyl-4-[(3-thiomethylphenyl)-(trans-2-methyl-1-azabicyclo[2.2.2]octan-3-amino)]benzamide Fumarate [Compound 10, N,N-Diethyl-4-[(3-thiomethylphenyl)-(trans-2-methyl-1-azabicyclo[2.2.2]octan-3-amino)]benzamide Fumarate [1:1.5]] |  | 25 |  | 
